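Interpolation was linear, between the two tested concentrations surrounding the appropriate level; five concentrations were tested over 48 hours in 96-well plates. TGI: concentration producing complete growth inhibition.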
What was measured:
Assay in all cases: NCI tumour cell line growth inhibition, 48 h
MDA-MB-231 breast = system: MDA-MB-231 breast
OVCAR-3 ovarian = system: OVCAR-3 ovarian
SF-295 CNS = system: SF-295 CNS
NCI-H23 lung = system: NCI-H23 lung
SK-OV-3 ovarian = system: SK-OV-3 ovarian
HCT-116 colon = system: HCT-116 colon
A549 NSCLC = system: A549 NSCLC
NCI-H226 lung = system: NCI-H226 lung
M14 melanoma = system: M14 melanoma
UACC-62 melanoma = system: UACC-62 melanoma
SK-MEL-5 melanoma = system: SK-MEL-5 melanoma
SW-620 colon = system: SW-620 colon
KM12 colon = system: KM12 colon
SR leukemia = system: SR leukemia
SF-539 CNS = system: SF-539 CNS
DU-145 prostate = system: DU-145 prostate
OVCAR-5 ovarian = system: OVCAR-5 ovarian
HT29 colon = system: HT29 colon
SK-MEL-28 melanoma = system: SK-MEL-28 melanoma
K-562 leukemia = system: K-562 leukemia
NCI-H460 lung = system: NCI-H460 lung
BT-549 breast = system: BT-549 breast
UO-31 renal = system: UO-31 renal
HL-60(TB) leukemia = system: HL-60(TB) leukemia
MDA-MB-435 = system: MDA-MB-435
LOX IMVI melanoma = system: LOX IMVI melanoma
OVCAR-4 ovarian = system: OVCAR-4 ovarian
MCF7 breast = system: MCF7 breast
MDA-N = system: MDA-N
UACC-257 melanoma = system: UACC-257 melanoma
EKVX NSCLC = system: EKVX NSCLC
SNB-19 CNS = system: SNB-19 CNS
NCI/ADR-RES ovarian = system: NCI/ADR-RES ovarian
HOP-92 NSCLC = system: HOP-92 NSCLC
RXF 393 renal = system: RXF 393 renal
SN12C renal = system: SN12C renal
MOLT-4 leukemia = system: MOLT-4 leukemia
ACHN renal = system: ACHN renal
SNB-75 CNS = system: SNB-75 CNS
COLO 205 colon = system: COLO 205 colon
IGROV1 ovarian = system: IGROV1 ovarian
HCT-15 colon = system: HCT-15 colon
PC-3 prostate = system: PC-3 prostate
RPMI-8226 leukemia = system: RPMI-8226 leukemia
A498 renal = system: A498 renal
HS 578T breast = system: HS 578T breast
SK-MEL-2 melanoma = system: SK-MEL-2 melanoma
786-0 renal = system: 786-0 renal
SF-268 CNS = system: SF-268 CNS
TK-10 renal = system: TK-10 renal
U251 CNS = system: U251 CNS
CAKI-1 renal = system: CAKI-1 renal
HOP-62 NSCLC = system: HOP-62 NSCLC
OVCAR-8 ovarian = system: OVCAR-8 ovarian
T-47D breast = system: T-47D breast
MALME-3M melanoma = system: MALME-3M melanoma
NCI-H522 lung = system: NCI-H522 lung
HCC-2998 colon = system: HCC-2998 colon
CCRF-CEM leukemia = system: CCRF-CEM leukemia

In the case of `O=C1C=CC2(C=C1)O[C@H](COCc1ccccc1)[C@@H](COCc1ccccc1)O2`, the TGI (MDA-MB-231 breast) was 12.8 µM, the TGI (OVCAR-3 ovarian) was 6.32 µM and the TGI (SF-295 CNS) was 30.3 µM. The TGI (NCI-H23 lung) was 4.29 µM, the TGI (SK-OV-3 ovarian) was 29 µM and the TGI (HCT-116 colon) was 0.582 µM. For the same compound, the TGI (A549 NSCLC) was 39 µM, the TGI (NCI-H226 lung) was 3.89 µM and the TGI (M14 melanoma) was 3.88 µM. The TGI (UACC-62 melanoma) was 3.99 µM, the TGI (SK-MEL-5 melanoma) was 3.22 µM and the TGI (SW-620 colon) was 0.765 µM. For the same compound, the TGI (KM12 colon) was 14.3 µM, the TGI (SR leukemia) was 0.849 µM and the TGI (SF-539 CNS) was 3.62 µM. It also gave a TGI (DU-145 prostate) of 12.5 µM, a TGI (OVCAR-5 ovarian) of 3.04 µM and a TGI (HT29 colon) of 5.88 µM. For the same compound, the TGI (SK-MEL-28 melanoma) was 3.57 µM, the TGI (K-562 leukemia) was > 100 µM and the TGI (NCI-H460 lung) was 37.2 µM. It also gave a TGI (BT-549 breast) of 2.37 µM, a TGI (UO-31 renal) of 2.91 µM and a TGI (HL-60(TB) leukemia) of 6.4 µM. For the same compound, the TGI (MDA-MB-435) was 5.51 µM, the TGI (LOX IMVI melanoma) was 3.51 µM and the TGI (OVCAR-4 ovarian) was 4.66 µM. It also gave a TGI (MCF7 breast) of 2.3 µM, a TGI (MDA-N) of 3.53 µM and a TGI (UACC-257 melanoma) of 3.56 µM. It also gave a TGI (EKVX NSCLC) of 3.66 µM, a TGI (SNB-19 CNS) of 12.3 µM and a TGI (NCI/ADR-RES ovarian) of 3.71 µM. For the same compound, the TGI (HOP-92 NSCLC) was 2.64 µM, the TGI (RXF 393 renal) was 1.31 µM and the TGI (SN12C renal) was 3.6 µM. The TGI (MOLT-4 leukemia) was 15.1 µM, the TGI (ACHN renal) was 3.1 µM and the TGI (SNB-75 CNS) was 13.4 µM. It also gave a TGI (COLO 205 colon) of 3.35 µM, a TGI (IGROV1 ovarian) of 3.03 µM and a TGI (HCT-15 colon) of 2.99 µM. The TGI (PC-3 prostate) was 4.74 µM, the TGI (RPMI-8226 leukemia) was 1.94 µM and the TGI (A498 renal) was 34.1 µM. It also gave a TGI (HS 578T breast) of 4.87 µM, a TGI (SK-MEL-2 melanoma) of 3.46 µM and a TGI (786-0 renal) of 2.22 µM. The TGI (SF-268 CNS) was 3.69 µM, the TGI (TK-10 renal) was 4.17 µM and the TGI (U251 CNS) was 4.02 µM. For the same compound, the TGI (CAKI-1 renal) was 5.88 µM, the TGI (HOP-62 NSCLC) was 5.12 µM and the TGI (OVCAR-8 ovarian) was 1.28 µM. For the same compound, the TGI (T-47D breast) was 6.99 µM and the TGI (MALME-3M melanoma) was 6.48 µM.
Work on `Cc1cn([C@@H]2O[C@H](CO[Si](C)(C)C(C)(C)C)[C@]3(O[C@H]3C(=O)NO)[C@H]2O[Si](C)(C)C(C)(C)C)c(=O)[nH]c1=O` yielded a TGI (MDA-MB-231 breast) of 4.19 µM, a TGI (OVCAR-3 ovarian) of 3.49 µM and a TGI (SF-295 CNS) of 3.4 µM. The TGI (NCI-H522 lung) was 3.12 µM, the TGI (NCI-H23 lung) was 3.66 µM and the TGI (SK-OV-3 ovarian) was 3.66 µM. It also gave a TGI (HCT-116 colon) of 2.85 µM, a TGI (A549 NSCLC) of 3.63 µM and a TGI (NCI-H226 lung) of 3.69 µM. It also gave a TGI (M14 melanoma) of 3.56 µM, a TGI (UACC-62 melanoma) of 3.38 µM and a TGI (SK-MEL-5 melanoma) of 3.58 µM. The TGI (SW-620 colon) was 4.28 µM, the TGI (KM12 colon) was 3.71 µM and the TGI (SF-539 CNS) was 2.83 µM. The TGI (DU-145 prostate) was 3.67 µM, the TGI (OVCAR-5 ovarian) was 3.33 µM and the TGI (HT29 colon) was 2.92 µM. It also gave a TGI (SK-MEL-28 melanoma) of 3.33 µM, a TGI (K-562 leukemia) of 6.48 µM and a TGI (NCI-H460 lung) of 3.15 µM. It also gave a TGI (BT-549 breast) of 3.29 µM, a TGI (UO-31 renal) of 3.28 µM and a TGI (HL-60(TB) leukemia) of 3.57 µM. For the same compound, the TGI (MDA-MB-435) was 4.38 µM, the TGI (HCC-2998 colon) was 2.97 µM and the TGI (LOX IMVI melanoma) was 3.1 µM. It also gave a TGI (OVCAR-4 ovarian) of 3.77 µM, a TGI (MCF7 breast) of 3.15 µM and a TGI (MDA-N) of 3.01 µM. For the same compound, the TGI (UACC-257 melanoma) was 6.92 µM, the TGI (EKVX NSCLC) was 3.59 µM and the TGI (SNB-19 CNS) was 3.18 µM. For the same compound, the TGI (NCI/ADR-RES ovarian) was 18.5 µM, the TGI (HOP-92 NSCLC) was 4.17 µM and the TGI (RXF 393 renal) was 3.34 µM. The TGI (SN12C renal) was 3.08 µM, the TGI (MOLT-4 leukemia) was 4.62 µM and the TGI (ACHN renal) was 3.06 µM. The TGI (SNB-75 CNS) was 3.71 µM, the TGI (IGROV1 ovarian) was 3.19 µM and the TGI (HCT-15 colon) was 3.62 µM. The TGI (PC-3 prostate) was 5.66 µM, the TGI (RPMI-8226 leukemia) was 2.84 µM and the TGI (A498 renal) was 3.33 µM. The TGI (HS 578T breast) was 4.23 µM, the TGI (SK-MEL-2 melanoma) was 3.9 µM and the TGI (CCRF-CEM leukemia) was 2.76 µM. It also gave a TGI (786-0 renal) of 2.87 µM, a TGI (SF-268 CNS) of 2.97 µM and a TGI (TK-10 renal) of 5.35 µM. The TGI (U251 CNS) was 3.07 µM, the TGI (CAKI-1 renal) was 4.31 µM and the TGI (HOP-62 NSCLC) was 3.52 µM. The TGI (OVCAR-8 ovarian) was 3.53 µM, the TGI (T-47D breast) was 4.07 µM and the TGI (MALME-3M melanoma) was 5.07 µM.
